# Experimental data taken from US20250195415A1, “BIODEGRADABLE CONTROLLED RELEASE ANTIVIRAL AGENT IMPLANTS” (Yale University, priority 2022, published 2025).
# Read-outs that look alike come from different tables or passages of the source.
# Experiments:
# [1] = In vitro drug release from poly(EB-co-DO) implants with mathematical diffusion model; assay type: physicochemical; conditions: for Diffusion Coefficient: 28 % Loading, P4 (37k, 20% DO) implants
# Description: Drug-loaded poly(EB-co-DO) implants (1 cm long, 2.4 mm diameter, 50 mg) were individually incubated in 1 mL of PBS solution (pH=7.4) containing 3% methyl-beta-cyclodextrin (M-β-CD) at 37° C. At selected time points, the buffer solution was completely replaced with fresh solution of the same composition. The collected buffer solutions, in which the implant had been continuously and completely bathed for a period of time, were flash frozen and lyophilized. High-performance liquid chromatography (HPLC) was then used to determine the representative drug loading of implants in each group.
# The samples were then centrifuged at 3000 rpm for 5 min to draw out any salts and M-β-CD. The supernatant was passed through 0.22 um syringe filters before being analyzed by HPLC for drug content.
# An Agilent column (883995-906, ZORBAX StableBond 300 C8, 4.6×150 mm, 5 μm) and Shimadzu HPLC system (LC-2030C) with a UV-Vis detector was used for drug quantitation. […] Initial solvent B concentration was set at 5% and allowed to increase to 100% by the 5th minute. Flow was maintained for 5 min at this level before dropping to 5% after 12 min, which was maintained until the end of the run at 13 minutes. For analysis of DTG drug release, Solvent A was 0.1% TFA in HPLC grade water, and solvent B was 100% methanol. Initial solvent B concentration was set at 55% and increased to 60% for the 6-7th minute before being brought back down to 55% for the 7-10th minute. All three drugs were detected using a UV detector at a wavelength of 240 nm. […] A volume of 45 μl was injected for each sample run.
# Fick's second law of diffusion appropriately models drug transport across polymeric matrixes by proportionally relating the diffusion rate at time, t, to the concentration gradient of drug in the implant, ∂C/∂r. As shown in the equation below (1), a one-dimensional, radial release from our cylindrical implants was adopted, with a constant drug diffusion coefficient, D.
# The solution for the above partial differential equation requires specification of a set of initial conditions and boundary conditions. For the initial condition (t=0), a homogenous and uniform concentration of drug throughout the implant was adopted, C=C0. A symmetry boundary condition is further applied at the center of the implant (r=0) as flux across the plane of symmetry is zero, ∂C/∂r=0. Lastly, a perfect-sink boundary condition is applied at the surface of implant (r=R), C=0. […] In vitro release, then, is determined from the mass of drug in the implant at each time point subtracted from initial mass of drug within the implant (Co*V). Lastly, the diffusion coefficient is determined by fitting the cumulative drug release profile to data from in vitro drug release experiments and minimizing root mean squared error (RMSE).
# [2] = Biocompatibility study, subcutaneous implantation in mice; conditions: mouse, in vivo, sc
# Description: To examine tissue responses and in vivo degradation of these implants, unloaded 20% DO implants (P4) were used and examined histological sections and polymer properties over a period of 8 months after subcutaneous implantation. Implants of ˜10 to 15 mg were implanted in the subdermal layer of 16 mice. […] implants were extracted every two months; half of the implants were used for histological examination while the other half were used to characterize the polymer using GPC and NMR (FIGS. 15A and 15B). […] This decrease in Mw (73%) during the first four months is slightly less than observed in vitro degradation, where there was an 84% decrease in Mw after four months of incubation in PBS buffer at 37° C. […] This trend can likely be attributed to the highly degradable PDO polymeric segments of the copolymer. In terms of structural integrity of the implants, the implants appeared intact at 8 months and were firm enough to be picked up by tweezers without damage to the implant.
# HIV-1 [3] = conditions: week 48, with FTC/TDF or ABC/3TC; cited from earlier work
# [4] = cited from earlier work
# [5] = cited from earlier work; remark: listed apart in the source
# [6] = Pharmacokinetic studies for implants and NPs in Hu-PBL mice; assay type: in vivo; conditions: for concentration at 42 d / concentration at 56 d / AUC(0-t): NSG (NOD.Cg-Prkdcscid Il2rgtm1Wjl/SzJ), Hu-PBL, mouse; for concentration at 42 d / concentration at 56 d: plasma; for concentration at 42 d: intraperitoneal, day 42; for AUC(0-t): serum
# Description: NOD.Cg-Prkdcscid Il2rgtm1 Wjl/SzJ (NSG) mice were purchased from the Jackson Laboratory (Bar Harbor, ME) and bred and maintained at Yale University (New Haven, CT) according to guidelines established by the Institutional Animal Committee. All experiments were performed according to protocols approved by the Institutional Review Board and the Institutional Animal Care and Use Committee of Yale University. NSG-Hu-PBL mice were engrafted. Briefly, 10×10^6 peripheral blood mononuclear cells (PBMC), purified by Ficoll density gradient centrifugation of healthy donor blood (obtained from the New York Blood Bank) were injected intraperitoneally in a 200 μl volume into 6- to 12-week-old NSG mice (Jackson Laboratory), using a 1 cm^3 syringe and 25-gauge needle. Mice were retro-orbitally bled to collect 70-100 μl of blood.
# Two NSG mice were injected intraperitoneally (i.p.) with Compound I-NP (190 mg/kg) and EFdA (10 mg/kg) suspended in sterile saline solution. The blood samples were collected at predetermined time points from the ocular venous plexus by retro-orbital venipuncture and used for subsequent HPLC analysis.
# Mice were anesthetized by intraperitoneal injection of ketamine (80 mg/kg) and xylazine (12 mg/kg) in PBS (10 ml/kg) based on individual mouse body weight. After anesthetizing, approximately 1-2 cm square of the dorsal skin was shaved using an electric hair clipper, the area was cleaned with ethanol and disinfected with betadine. Using a sterile disposable surgical blade, an incision of 4-5 mm was made through the skin. Gently, 2 cm×3 cm subcutaneous pockets were created with forceps and implants loaded with EFdA and Compound I were co-inserted at the same site. The opening was sutured using absorbable sutures followed by subcutaneous administration of 0.05 mg/kg buprenorphine. The animals were kept warm using the temperature-controlled heating pads until they regained consciousness. Toxicity was evaluated by clinical observations, eageside observations (twice daily), and body weight (at least weekly).
# To determine dose-dependent serum agent concentrations, in vivo pharmacokinetics of Compound I and EFdA implants, and Compound I-NP and EFdA-NP were investigated in Hu-PBL mice. The blood samples were collected at predetermined time points from the ocular venous plexus by retro orbital venipuncture and serum was used for subsequent HPLC analysis.
# [7] = molecular target: T1, human mitochondrial DNA polymerase (Homo sapiens, UniProt P54098); conditions: previous studies; cited from earlier work
# T1 sequence (P54098 1-1239): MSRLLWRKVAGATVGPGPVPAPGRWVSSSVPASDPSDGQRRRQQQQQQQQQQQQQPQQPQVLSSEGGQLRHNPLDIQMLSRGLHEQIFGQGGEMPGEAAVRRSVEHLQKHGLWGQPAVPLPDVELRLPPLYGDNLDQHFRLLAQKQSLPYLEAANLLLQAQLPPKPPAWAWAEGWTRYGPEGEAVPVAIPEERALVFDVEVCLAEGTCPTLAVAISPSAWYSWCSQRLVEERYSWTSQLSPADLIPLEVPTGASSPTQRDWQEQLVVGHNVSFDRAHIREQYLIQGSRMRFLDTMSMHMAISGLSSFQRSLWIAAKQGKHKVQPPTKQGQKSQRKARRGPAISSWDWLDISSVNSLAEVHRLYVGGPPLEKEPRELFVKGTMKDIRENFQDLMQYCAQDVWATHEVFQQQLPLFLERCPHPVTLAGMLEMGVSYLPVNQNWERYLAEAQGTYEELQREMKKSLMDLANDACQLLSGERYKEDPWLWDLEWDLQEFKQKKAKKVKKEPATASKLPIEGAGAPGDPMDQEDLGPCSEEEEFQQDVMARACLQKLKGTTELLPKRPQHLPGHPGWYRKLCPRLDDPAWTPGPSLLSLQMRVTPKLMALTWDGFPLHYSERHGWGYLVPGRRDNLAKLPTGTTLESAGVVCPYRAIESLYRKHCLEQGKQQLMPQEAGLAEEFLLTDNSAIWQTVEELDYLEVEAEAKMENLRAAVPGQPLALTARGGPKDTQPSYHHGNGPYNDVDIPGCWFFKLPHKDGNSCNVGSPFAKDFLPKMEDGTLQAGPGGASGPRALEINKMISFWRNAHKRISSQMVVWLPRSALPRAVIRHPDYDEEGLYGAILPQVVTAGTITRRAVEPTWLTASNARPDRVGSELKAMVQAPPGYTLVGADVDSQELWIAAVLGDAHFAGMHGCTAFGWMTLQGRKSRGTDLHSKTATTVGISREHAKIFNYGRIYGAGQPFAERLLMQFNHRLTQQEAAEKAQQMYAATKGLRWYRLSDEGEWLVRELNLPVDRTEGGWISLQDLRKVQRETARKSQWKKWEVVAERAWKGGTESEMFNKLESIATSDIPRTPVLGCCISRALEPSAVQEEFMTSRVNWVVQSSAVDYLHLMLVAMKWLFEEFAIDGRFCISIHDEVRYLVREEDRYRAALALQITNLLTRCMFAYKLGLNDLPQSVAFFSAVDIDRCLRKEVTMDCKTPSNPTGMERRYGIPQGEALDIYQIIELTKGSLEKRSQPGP
# [8] = rodents; cited from earlier work
# HIV-1 [9] = test: HIV cellular assays (HIV cell culture), antiviral potency
compound,measurement,setting,value
"C[C@@H]1CCO[C@H]2Cn3cc(C(=O)NCc4ccc(F)cc4F)c(=O)c(O)c3C(=O)N12 [DTG, dolutegravir]",Diffusion Coefficient,[1],1.7 × 10^−9 cm^2/sec
same,burst release rates compared to DEX,"[1]; 28% loading, P4 implants",three-fold reduction in burst release rates
same,cumulative in vitro release compared to DEX from comparable implants,"[1]; 28% loading, P4 implants",slower cumulative release
poly(ethylene brassylate-co-dioxanone) [poly(EB-co-DO) implants],tolerability after subcutaneous implantation,[2],well tolerated
Cn1c(Cn2ccc(C(F)(F)F)c(Oc3cc(Cl)cc(C#N)c3)c2=O)n[nH]c1=O [doravirine],patients with plasma HIV-1 RNA of less than 50 copies/mL,HIV-1 [3],84%
"C[C@@H]1C[C@H]2[C@@H]3CCC4=CC(=O)C=C[C@]4(C)[C@@]3(F)[C@@H](O)C[C@]2(C)[C@@]1(O)C(=O)CO [DEX, dexamethasone]",Diffusion Coefficient,[1],3.7 × 10^−9 cm^2/sec
same,log P,[4],1.6-1.9
same,diffusion coefficient in porous EVAc implants,[5]; 35% DEX loading,2.0×10^−10 cm^2/sec
same,diffusion coefficient in water,"[5]; radiolabeled DEX in saline, 37° C.",5.2×10^−6 cm^2/sec
"C#C[C@]1(CO)O[C@@H](n2cnc3c(N)nc(F)nc32)C[C@@H]1O [EFdA, 4′-Ethynyl-2-fluoro-2′-deoxyadenosine]",increase in serum concentration,"[6]; NPs, day 14-post infection",21%
same,decline in serum concentration after day 21,"[6]; NPs, over the next three weeks",two-fold decline
same,clearance,"[6]; NPs, single i.p. dose, co-administered",1.2 mL/h/kg
same,concentration at 42 d,"[6]; NPs, read-out: plasma level maintained at end of experiment",≥ 4000 ng/mL
same,concentration at 42 d,"[6]; NPs, read-out: plasma level maintained at end of experiment (molar)",≥ 13 µM
same,concentration at 56 d,"[6]; subcutaneous, implants, day 56, read-out: sustained plasma concentration at end of experiment",7500 ng/mL
same,concentration at 56 d,"[6]; subcutaneous, implants, day 56, read-out: sustained plasma concentration at end of experiment (molar)",25 µM
same,AUC(0-t),"[6]; ip, NPs, single i.p. dose, co-administered",6980 µg·h/mL
same,AUC(0-t),"[6]; subcutaneous, co-implanted poly(PDL-co-DO) implants, 56 d",9130 µg·h/mL
same,serum level fold higher than the cellular EC50,"[6]; implants, day 14","11,000 fold"
same,fold decrease in serum concentration compared to day 28,"[6]; implants, day 35 post-implantation",5 fold
same,plasma concentration fold above the EC90,"[6]; implants, day 56",~1600 fold
same,substrate for human mitochondrial DNA polymerase,[7],poor substrate
same,time of sustained levels of agent from implants,[8],up to 6 months
same,EC50,"HIV-1 [9]; Human immunodeficiency virus 1, read-out: effective concentrations (EC50)",1.9 nM
same,IC90 / EC90 in HIV cell culture,HIV-1 [9]; calculated from EC50 with Hill slope of 1,17.1 nM
